Reference: patent publication US9364476B2, “Methods of treating a Bruton's Tyrosine Kinase disease or disorder” (Celgene Avilomics Research, Inc., priority 2011, dated 2016)
Like-named read-outs stand apart in the source and are kept apart here.

Columns and labels:
[1] = CLL expansion cohort C: DLT; assay type: in vivo, human; conditions: 24 subjects, 750 mg po QD
Method: 24 subjects were enrolled into the CLL expansion cohort C and were assessed for safety, tolerability, DLT, PK, PD and disease response. Each subject was evaluated prior to enrollment to ensure that minimum hematological criteria were satisfied: […]

CLL patients = assay: Dose escalation study: lymph node size and absolute lymphocyte count in CLL patients; assay type: in vivo, human
Text: FIG. 6 depicts the change in lymph node size in CLL patients with available lymph node assessment, twelve (12) of whom are from cohorts 1-5. These patients have experienced some degree of lymph node reduction: 2/12 patients have experienced nodal response (>50% reduction); 6/12 patients have experienced between 25 and 50% reduction over the treatment and follow-up periods indicated in the figure. The doses indicated refer to the patient's starting dose. The numbers at the top of each bar indicate the number of cycles completed for each subject as of the last available lymph node measurement.
FIG. 7 depicts the change in absolute lymphocyte count (ALC) in CLL patients. As of Sep. […] All CLL subjects with follow-up through cycle 1 at all dose levels are shown. Subjects treated with 750 mg or higher are indicated under the dotted line.

[2] = for maximum tolerated dose (MTD): dose escalation cohorts, besylate
Text: Intrapatient dose escalation was allowed.
Enrollment for Cohorts 1-5 was not restricted or contingent on the basis of specific B-NHL/CLL/WM diagnosis. […] For example, the physician-investigator may elect to rest a patient due to occurrence or recurrence of adverse events. […] In this context, treatment duration refers to the time a patient is enrolled in the study, inclusive of all rest periods, until treatment is discontinued.
Six (6) subjects diagnosed with CLL and six (6) patients diagnosed with B-NHL were enrolled in each of Cohorts 6A and 6B. Cohorts 6A and 6B were enrolled concurrently, and if meeting the requirements for continued escalation, Cohorts 7A and 7B will be enrolled and evaluated.
Hematologic DLTs included Grade 4 anemia or thrombocytopenia, Grade 4 neutropenia greater than 5 days despite granulocyte colony-stimulating factor (G-CSF) and Grade 3 or higher febrile neutropenia.
Dose escalation will continue until a DLT is observed. […] One key objective for the dose escalation portion of the study was to identify the maximum tolerated dose (MTD) and Optimal Biological Effect dose (OBE). The OBE was defined as: […]

Solubility of the API = assay type: physicochemical
B-NHL patients = assay: Dose escalation study: lymph node size in B-NHL patients; assay type: in vivo, human; conditions: dose escalation cohorts
Text: The doses indicated refer to the patient's starting dose. The numbers at the top of each bar indicate the number of cycles completed for each subject as of the last available lymph node measurement.

[3] = Environmental stability (heat, acid, base); assay type: physicochemical
[4] = twelve CLL patients from cohorts 1-5 with lymph node assessment
[5] = 5/21 subjects, regardless of dose
[6] = cohort 5, 750 mg QD, initial, through May 22, 2012
[7] = cohorts 1-5 through May 22, 2012

C=CC(=O)Nc1cccc(Nc2nc(Nc3ccc(OCCOC)cc3)ncc2F)c1.O=S(=O)(O)c1ccccc1 [N-(3-(5-fluoro-2-(4-(2-methoxyethoxy)phenylamino)pyrimidin-4-ylamino)phenyl)acrylamide besylate]
patients showing no DLT [1]: Twenty-four | CLL patients with early increases (≧25%) in absolute lymphocyte counts (ALC) (CLL patients; of fifteen (15) CLL patients in cohorts 1-6A/B, first 28-day cycle, as of Sep. 11, 2012): 11 patients | CLL patients with between 25 and 50% reduction of lymph node size (CLL patients; [4]): 6/12 | CLL patients with nodal response (>50% reduction of lymph node size) (CLL patients; [4]): 2/12 | treatment emergent AE: grade 1 or 2 headache [2, 5]: 23.8% | treatment emergent AE: thrombocytopenia [2, 5]: 23.8% | treatment emergent AE: grade 1 or 2 transient diarrhea ([2]; 15/21 subjects, regardless of dose): 71.4% | other DLTs ([2]; besides the follicular lymphoma patient in cohort 3): no other DLTs have occurred | serious adverse event not related to the study: disseminated Herpes zoster ([2]; cohort 1): 1 patient | serious adverse event not related to the study: pneumonia ([2]; cohort 1): 1 patient | incidence of abdominal distension ([2]; cohort 1, 125 mg QD): 1 patient | incidence of contusion (bruising) ([2]; cohort 1, 125 mg QD): 2 patients | incidence of diarrhea ([2]; cohort 1, 125 mg QD): 3 patients | incidence of dyspepsia ([2]; cohort 1, 125 mg QD): 1 patient | incidence of dyspnea ([2]; cohort 1, 125 mg QD): 1 patient | incidence of fatigue ([2]; cohort 1, 125 mg QD): 2 patients | incidence of headache ([2]; cohort 1, 125 mg QD): 2 patients | incidence of jaw pain ([2]; cohort 1, 125 mg QD): 1 patient | incidence of lymph node pain ([2]; cohort 1, 125 mg QD): 2 patients | incidence of muscle spasm ([2]; cohort 1, 125 mg QD): 1 patient | incidence of nausea ([2]; cohort 1, 125 mg QD): 1 patient | incidence of pneumonia ([2]; cohort 1, 125 mg QD): 1 patient | incidence of rash ([2]; cohort 1, 125 mg QD): 1 patient | incidence of sinusitis ([2]; cohort 1, 125 mg QD): 1 patient | incidence of thrombocytopenia ([2]; cohort 1, 125 mg QD): 1 patient | incidence of upper respiratory infection ([2]; cohort 1, 125 mg QD): 2 patients | incidence of urticaria ([2]; cohort 1, 125 mg QD): 1 patient | incidence of weight loss ([2]; cohort 1, 125 mg QD): 1 patient | serious adverse event not related to the study: atrial fibrillation ([2]; cohort 2): 1 patient | incidence of abdominal distension ([2]; cohort 2, 250 mg QD): 1 patient | incidence of cough ([2]; cohort 2, 250 mg QD): 1 patient | incidence of decreased diarrhea ([2]; cohort 2, 250 mg QD): 2 patients | incidence of dysgeusia ([2]; cohort 2, 250 mg QD): 1 patient | incidence of dyspnea ([2]; cohort 2, 250 mg QD): 1 patient | incidence of fatigue ([2]; cohort 2, 250 mg QD): 1 patient | incidence of nausea ([2]; cohort 2, 250 mg QD): 1 patient | incidence of neutropenia ([2]; cohort 2, 250 mg QD): 1 patient | incidence of pneumonia ([2]; cohort 2, 250 mg QD): 1 patient | incidence of weight loss ([2]; cohort 2, 250 mg QD): 1 patient | serious adverse event not related to the study: hematuria/urinary retention ([2]; cohort 3): 1 patient | serious adverse event not related to the study: pneumonia/thrombocytopenia/ANC decreased ([2]; cohort 3): 1 patient | dose limiting toxicity ([2]; cohort 3 (400 mg QD), follicular lymphoma subject, first 28-day cycle): thrombocytopenia (low platelet count; Grade 4) | incidence of anemia ([2]; cohort 3, 400 mg QD): 1 patient | incidence of cough ([2]; cohort 3, 400 mg QD): 2 patients | incidence of diarrhea ([2]; cohort 3, 400 mg QD): 4 patients | incidence of fatigue ([2]; cohort 3, 400 mg QD): 1 patient | incidence of headache ([2]; cohort 3, 400 mg QD): 1 patient | incidence of influenza-like illness ([2]; cohort 3, 400 mg QD): 1 patient | incidence of insomnia ([2]; cohort 3, 400 mg QD): 1 patient | incidence of jaw pain ([2]; cohort 3, 400 mg QD): 1 patient | incidence of muscle spasm ([2]; cohort 3, 400 mg QD): 1 patient | incidence of neutropenia ([2]; cohort 3, 400 mg QD): 2 patients | incidence of pneumonia ([2]; cohort 3, 400 mg QD): 1 patient | incidence of rash ([2]; cohort 3, 400 mg QD): 1 patient | incidence of thrombocytopenia ([2]; cohort 3, 400 mg QD): 3 patients | incidence of upper respiratory infection ([2]; cohort 3, 400 mg QD): 2 patients | incidence of urinary retention ([2]; cohort 3, 400 mg QD): 1 patient | incidence of urticaria ([2]; cohort 3, 400 mg QD): 1 patient | serious adverse event not related to the study: tonsillar hypertrophy ([2]; cohort 4): 1 patient | neutropenia (adverse event) leading to discontinuation, after ([2]; cohort 4 (625 mg QD), CLL patient, after three cycles): 85 days | incidence of abdominal pain ([2]; cohort 4, 625 mg QD): 2 patients | incidence of anemia ([2]; cohort 4, 625 mg QD): 1 patient | incidence of dehydration ([2]; cohort 4, 625 mg QD): 2 patients | incidence of diarrhea ([2]; cohort 4, 625 mg QD): 5 patients | incidence of dysgeusia ([2]; cohort 4, 625 mg QD): 2 patients | incidence of dyspepsia ([2]; cohort 4, 625 mg QD): 2 patients | incidence of eye pain ([2]; cohort 4, 625 mg QD): 2 patients | incidence of headache ([2]; cohort 4, 625 mg QD): 2 patients | incidence of influenza-like illness ([2]; cohort 4, 625 mg QD): 1 patient | incidence of insomnia ([2]; cohort 4, 625 mg QD): 1 patient | incidence of nausea ([2]; cohort 4, 625 mg QD): 2 patients | incidence of neutropenia ([2]; cohort 4, 625 mg QD): 1 patient | incidence of sinusitis ([2]; cohort 4, 625 mg QD): 1 patient | incidence of thrombocytopenia ([2]; cohort 4, 625 mg QD): 1 patient | incidence of urinary retention ([2]; cohort 4, 625 mg QD): 1 patient | incidence of abdominal pain [2, 6]: 1 patient | incidence of diarrhea [2, 6]: 1 patient | Grade 3-4 neutropenia [2, 7]: 3 patients | Grade 3-4 pneumonia [2, 7]: 2 patients | Grade 3-4 thrombocytopenia [2, 7]: 4 patients | maximum tolerated dose (MTD) [2]: not yet been reached | maximum tolerated dose (MTD) ([2]; listed as API): not been reached | severity of adverse events reported ([2]; except for decreased ANC (neutropenia), pneumonia and thrombocytopenia): Grade 1 and 2 | Grade 3/4 adverse event: neutropenia ([2]; subjects/21, probably related): 3/21 | Grade 3/4 adverse event: pneumonia ([2]; subjects/21, probably related): 2/21 | Grade 3/4 adverse event: thrombocytopenia ([2]; subjects/21, probably related): 4/21 | solubility (Solubility of the API; ethanol, organic solvent or mixture, read-out: solubility in ethanol): ~10 mg/mL | solubility (Solubility of the API; water, read-out: solubility in water): ~0.16 mg/mL | B-NHL patients with decreased lymph node size (B-NHL patients): Six | environmental instabilities (i.e. heat, acid, base) that require special handling [3]: no environmental instabilities
